Measurements published in ChEMBL document CHEMBL3098053, “Inhibition of serine and proline racemases by substrate-product analogues” (Bioorg Med Chem Lett, 2014).

Assays:
[1] = biological target: T1, Proline racemase (Clostridium sticklandii) (UniProt Q9L4Q3); assay: Inhibition of Clostridium sticklandii ATCC 12662 proline racemase L-proline as substrate at 57 mM relative to control; settings: Acetoanaerobium sticklandii
T1 sequence (whole entry): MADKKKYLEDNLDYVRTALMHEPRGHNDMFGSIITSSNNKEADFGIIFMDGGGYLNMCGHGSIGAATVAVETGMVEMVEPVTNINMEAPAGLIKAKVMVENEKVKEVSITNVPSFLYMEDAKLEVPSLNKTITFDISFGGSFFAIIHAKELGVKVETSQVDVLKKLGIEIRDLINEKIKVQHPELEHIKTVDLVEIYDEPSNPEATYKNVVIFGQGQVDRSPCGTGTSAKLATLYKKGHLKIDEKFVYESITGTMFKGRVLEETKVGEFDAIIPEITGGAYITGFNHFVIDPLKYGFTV

[2] = biological target: T1, Proline racemase (Clostridium sticklandii); assay: Inhibition of Clostridium sticklandii ATCC 12662 proline racemase using L-proline as substrate at 0.36 mM relative to control; settings: Acetoanaerobium sticklandii
[3] = biological target: T2, Proline racemase (Clostridium sticklandii, UniProt Q9L4Q3); assay: Competitive inhibition of N-terminal 6xHis-tagged Clostridium sticklandii ATCC 12662 proline racemase expressed in Escherichia coli BL21(DE3) using L/D-proline as substrate; set-up: species or system Acetoanaerobium sticklandii
T2 sequence (Q9L4Q3 whole entry): T1 sequence (whole entry)

[4] = biological target: T3, Serine racemase (Schizosaccharomyces pombe (strain 972 / ATCC 24843) (Fission yeast), UniProt O59791); assay: (§1) Mixed type inhibition of N-terminal 6xHis-tagged recombinant Schizosaccharomyces pombe 972 serine racemase expressed in Escherichia coli BL21(DE3) using L-serine as substrate assessed as enzyme-inhibitor complex preincubated for 2 mins followed by substrate addition by double reciprocal plot analysis
T3 sequence (O59791 whole entry): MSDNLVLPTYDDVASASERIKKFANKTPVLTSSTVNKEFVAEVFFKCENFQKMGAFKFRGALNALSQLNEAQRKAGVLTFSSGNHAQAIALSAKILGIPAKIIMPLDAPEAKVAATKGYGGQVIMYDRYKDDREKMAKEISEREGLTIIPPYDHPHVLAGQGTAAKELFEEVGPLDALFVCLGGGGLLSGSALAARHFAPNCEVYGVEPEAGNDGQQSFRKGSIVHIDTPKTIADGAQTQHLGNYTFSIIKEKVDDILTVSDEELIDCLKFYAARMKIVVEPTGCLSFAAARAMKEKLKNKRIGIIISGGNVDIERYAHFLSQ

[5] = biological target: T3, Serine racemase; assay: as §1, with “enzyme-substrate-inhibitor” for “enzyme-inhibitor”
[6] = biological target: T1, Proline racemase (Clostridium sticklandii); assay: Inhibition of N-terminal 6xHis-tagged Clostridium sticklandii ATCC 12662 proline racemase expressed in Escherichia coli BL21(DE3) using L/D-proline as substrate at 142.5 mM preincubated for 5 mins by circular dichroism-based analysis; settings: Acetoanaerobium sticklandii
[7] = biological target: T2, Proline racemase; assay: Noncompetitive inhibition of N-terminal 6xHis-tagged Clostridium sticklandii ATCC 12662 proline racemase expressed in Escherichia coli BL21(DE3) using L/D-proline as substrate preincubated for 5 mins by Cornish-Bowden plot analysis; set-up: species or system Acetoanaerobium sticklandii
[8] = biological target: T2, Proline racemase; assay: Inhibition of N-terminal 6xHis-tagged Clostridium sticklandii ATCC 12662 proline racemase expressed in Escherichia coli BL21(DE3) using L/D-proline as substrate preincubated for 5 mins by circular dichroism-based analysis; set-up: species or system Acetoanaerobium sticklandii

`O=Cc1ccc[nH]1` gave an inhibition [1] of 98%, an inhibition [2] of 50% and a Ki [3] of 0.0058 mM.

Compound `NC(CO)(CO)C(=O)O` has a Ki [4] of 167 mM and a Ki [5] of 661 mM.

Work on `O=C(O)C12CCC(CC1)N2` yielded an inhibition [6] of 29%.

`O=C(O)C12CCCN1CCC2` was tested, and the Ki [7] was 111 mM and the IC50 [8] was 67 mM.
